Laboratory results reported in patent US9150592B2, “Heterocyclic nuclear hormone receptor modulators” (AbbVie Inc., priority 2012, dated 2015).

molecular target: T1, Glucocorticoid Receptor (GR) (Homo sapiens, UniProt P04150); assay: GR Fluorescence Polarization Assay (PolarScreen Glucocorticoid Receptor Competitor Assay, Red); settings: IC50 class ranges, read-out: GR binding
T1 construct: purchased Invitrogen P2893
T1 sequence (P04150 1-777): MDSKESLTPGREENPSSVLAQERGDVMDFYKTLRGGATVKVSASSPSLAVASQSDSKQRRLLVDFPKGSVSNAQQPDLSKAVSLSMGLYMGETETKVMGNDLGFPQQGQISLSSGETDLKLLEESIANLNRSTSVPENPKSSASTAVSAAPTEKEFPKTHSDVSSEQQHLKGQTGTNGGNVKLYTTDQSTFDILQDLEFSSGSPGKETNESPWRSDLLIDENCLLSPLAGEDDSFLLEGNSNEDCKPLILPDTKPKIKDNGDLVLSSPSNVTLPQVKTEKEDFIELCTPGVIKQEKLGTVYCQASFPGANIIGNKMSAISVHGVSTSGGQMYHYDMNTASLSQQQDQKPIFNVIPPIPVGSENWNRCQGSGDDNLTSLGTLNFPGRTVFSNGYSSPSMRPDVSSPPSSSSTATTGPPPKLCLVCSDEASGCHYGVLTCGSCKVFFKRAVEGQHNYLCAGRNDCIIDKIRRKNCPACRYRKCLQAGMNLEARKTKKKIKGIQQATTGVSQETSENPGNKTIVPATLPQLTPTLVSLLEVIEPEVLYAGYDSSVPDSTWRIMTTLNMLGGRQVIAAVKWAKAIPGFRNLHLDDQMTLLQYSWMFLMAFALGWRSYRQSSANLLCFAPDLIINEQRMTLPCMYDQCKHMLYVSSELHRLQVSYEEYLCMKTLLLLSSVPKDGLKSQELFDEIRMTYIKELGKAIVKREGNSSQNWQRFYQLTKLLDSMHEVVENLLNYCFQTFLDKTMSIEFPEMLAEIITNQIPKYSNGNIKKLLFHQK
Description: GR Fluorescence Polarization Assay
Fluorescence polarization assays were carried out using the PolarScreen™ Glucocorticoid Receptor Competitor Assay, Red from Invitrogen (P2893). The assay buffer was prepared according to the manufacturer's protocol and used to dilute the fluorescent glucocorticoid and GR. Compounds were prepared and serial diluted 1:4 in DMSO. Compound, fluorescent glucocorticoid and GR were added in a final volume of 20 μL and incubated overnight at 4° C. Fluorescent polarization was measured on the PerkinElmer Envision®.

**Q.** With Cc1nn(C)c2c1C(c1ccc(Cl)cc1)SC(CCO)CN2 (stereo not drawn) [D.100] as the compound, how does the IC50 read?
**A.** < 100 nM

**Q.** With Cn1nc(-c2ccc(C(C)(C)C)cc2)c2c1NCCSC2c1ccc(Cl)cc1Cl (stereo not drawn) [D.88] as the compound, how does the IC50 read?
**A.** 1000 to 10000 nM

**Q.** Which IC50 does the source give for Cn1nc(-c2ccc(OC(F)(F)F)cc2)c2c1NCCSC2c1ccc(Cl)cc1Cl (stereo not drawn) [D.95] here?
**A.** 1000 to 10000 nM

**Q.** With CCn1nc(-c2ccccn2)c2c1N[C@@H](C)CS[C@@H]2c1ccc(C#CCN(C)C)cc1C (single isomer, unassigned) [M.64, 3-(4-(1-ethyl-7-methyl-3-(pyridin-2-yl)-4,6,7,8-tetrahydro-1H-pyrazolo[3,4-e][1,4]thiazepin-4-yl)-3-methylphenyl)-N,N-dimethylprop-2-yn-1-amine] as the compound, how does the IC50 read?
**A.** 1000 to 10000 nM

**Q.** Cn1nc(C(F)(F)F)c2c1NCCSC2c1ccc(Cl)cc1Cl (stereo not drawn) [D.91] was tested. Which IC50 did it give?
**A.** 1000 to 10000 nM

**Q.** Which IC50 does the source give for CCn1nc(-c2ccccn2)c2c1NCCSC2c1ccc(C(=O)Nc2nnn[nH]2)cc1C (stereo not drawn) [S.6] here?
**A.** 100 to 1000 nM

**Q.** CCn1nc(-c2ccccn2)c2c1N[C@H](C)CS[C@@H]2c1ccc(CCCO)cc1C (single isomer, unassigned) [M.34, 3-(4-(1-ethyl-7-methyl-3-(pyridin-2-yl)-4,6,7,8-tetrahydro-1H-pyrazolo[3,4-e][1,4]thiazepin-4-yl)-3-methylphenyl)propan-1-ol] was tested. Which IC50 did it give?
**A.** 100 to 1000 nM

**Q.** How did the IC50 turn out when CNC(=O)c1ccc(-c2nn(C)c3c2C(c2ccc(Cl)cc2Cl)SCCN3)nc1 (stereo not drawn) [I.3] was run?
**A.** 1000 to 10000 nM

**Q.** With Cn1nc(-c2ccccn2)c2c1NCCSC2c1ccc(-c2cnccc2C#N)cc1Cl (stereo not drawn) [U.10] as the compound, how does the IC50 read?
**A.** 100 to 1000 nM

**Q.** Cn1nc(-c2ccccn2)c2c1NCCSC2c1ccc(-c2cncc(C(=O)N3CCOCC3)c2)cc1Cl (stereo not drawn) [U.12] was tested. Which IC50 did it give?
**A.** 100 to 1000 nM

**Q.** How did the IC50 turn out when CCn1nc(-c2ccccn2)c2c1N[C@@H](C)CS[C@@H]2c1ccc(CCCO)cc1C (single isomer, unassigned) [M.33, 3-(4-(1-ethyl-7-methyl-3-(pyridin-2-yl)-4,6,7,8-tetrahydro-1H-pyrazolo[3,4-e][1,4]thiazepin-4-yl)-3-methylphenyl)propan-1-ol] was run?
**A.** 100 to 1000 nM

**Q.** CCn1nc(-c2ccccn2)c2c1NCCSC2c1ccc(C(=O)Nc2onc(C)c2C#N)cc1C (stereo not drawn) [S.7] was tested. Which IC50 did it give?
**A.** 100 to 1000 nM

**Q.** How did the IC50 turn out when Cc1cc(CCCO)ccc1[C@H]1SC[C@@H](C)Nc2c1c(-c1ccccn1)nn2C (single isomer, unassigned) [M.50, 3-(4-(1,7-dimethyl-3-(pyridin-2-yl)-4,6,7,8-tetrahydro-1H-pyrazolo[3,4-e][1,4]thiazepin-4-yl)-3-methylphenyl)propan-1-ol] was run?
**A.** 1000 to 10000 nM

**Q.** CCn1nc(-c2ccccn2)c2c1N[C@@H](C)CS[C@@H]2c1ccc(CCC(C)(C)O)cc1C (single isomer, unassigned) [M.37, 4-(4-(1-ethyl-7-methyl-3-(pyridin-2-yl)-4,6,7,8-tetrahydro-1H-pyrazolo[3,4-e][1,4]thiazepin-4-yl)-3-methylphenyl)-2-methylbutan-2-ol] was tested. Which IC50 did it give?
**A.** 100 to 1000 nM

**Q.** COc1cccc(C2SCCNc3c2c(C)nn3C)c1 (stereo not drawn) [D.81] was tested. Which IC50 did it give?
**A.** 1000 to 10000 nM

**Q.** For Cc1cc(Cl)ccc1C1SCC(C)Nc2c1c(-c1ccccn1)nn2C (single isomer, unassigned), which IC50 is on record?
**A.** < 100 nM

**Q.** Cn1nc(-c2ccccn2)c2c1NCCSC2c1ccc(-c2ccc(S(C)(=O)=O)nc2)cc1Cl (stereo not drawn) [U.13] was tested. Which IC50 did it give?
**A.** 100 to 1000 nM

**Q.** How did the IC50 turn out when Cc1ccc(Oc2ccc(C3SCCNc4c3c(C)nn4C)cc2)cc1 (stereo not drawn) [D.75] was run?
**A.** 1000 to 10000 nM

**Q.** For Cc1cc(CCCO)ccc1[C@H]1SC[C@H](C)Nc2c1c(-c1ccccn1)nn2C (single isomer, unassigned) [M.49, 3-(4-(1,7-dimethyl-3-(pyridin-2-yl)-4,6,7,8-tetrahydro-1H-pyrazolo[3,4-e][1,4]thiazepin-4-yl)-3-methylphenyl)propan-1-ol], which IC50 is on record?
**A.** 1000 to 10000 nM

**Q.** For Cn1nc(-c2ccccn2)c2c1NCCSC2c1ccc(-c2ccnnc2)cc1Cl (stereo not drawn) [U.3], which IC50 is on record?
**A.** 1000 to 10000 nM

**Q.** With Cc1cc(C#CCCO)ccc1[C@H]1SC[C@@H](C)Nc2c1c(-c1ccccn1)nn2C (single isomer, unassigned) [M.56, 4-(4-(1,7-dimethyl-3-(pyridin-2-yl)-4,6,7,8-tetrahydro-1H-pyrazolo[3,4-e][1,4]thiazepin-4-yl)-3-methylphenyl)but-3-yn-1-ol] as the compound, how does the IC50 read?
**A.** 100 to 1000 nM

**Q.** For Cc1nn(C)c2c1C(c1cc[nH]n1)SCCN2 (stereo not drawn) [D.102], which IC50 is on record?
**A.** > 10000 nM

**Q.** How did the IC50 turn out when Cn1nc(-c2ccccn2)c2c1NCCSC2c1ccc(-c2cnc(N3CCOCC3)nc2)cc1Cl (stereo not drawn) [U.19] was run?
**A.** 1000 to 10000 nM

**Q.** Cc1cc(Br)ccc1C1CCC(=O)Nc2c1c(C)nn2C (stereo not drawn) [AA.2] was tested. Which IC50 did it give?
**A.** 1000 to 10000 nM

**Q.** How did the IC50 turn out when CCn1nc(-c2ccccn2)c2c1NCCSC2c1ccc(C(=O)Nc2cccnc2C)cc1C (single isomer, unassigned) [M.61, 4-(1-ethyl-3-(pyridin-2-yl)-4,6,7,8-tetrahydro-1H-pyrazolo[3,4-e][1,4]thiazepin-4-yl)-3-methyl-N-(2-methylpyridin-3-yl)benzamide] was run?
**A.** 100 to 1000 nM

**Q.** Which IC50 does the source give for COc1ccc(C2SCCNc3c2c(C)nn3C)cc1 (stereo not drawn) [D.97] here?
**A.** 1000 to 10000 nM

**Q.** How did the IC50 turn out when Cn1nc(-c2ccccn2)c2c1N(CC(=O)O)CCSC2c1ccc(Cl)cc1Cl (stereo not drawn) was run?
**A.** 1000 to 10000 nM

**Q.** How did the IC50 turn out when CCn1nc(-c2ccccn2)c2c1N[C@H](C)CS[C@@H]2c1ccc(C(N)=O)cc1C (single isomer, unassigned) [M.47, 4-(1-ethyl-7-methyl-3-(pyridin-2-yl)-4,6,7,8-tetrahydro-1H-pyrazolo[3,4-e][1,4]thiazepin-4-yl)-3-methylbenzamide] was run?
**A.** 100 to 1000 nM

**Q.** For CNC(=O)c1cncc(-c2ccc(C3SCCNc4c3c(-c3ccccn3)nn4C)c(Cl)c2)c1 (stereo not drawn) [U.8], which IC50 is on record?
**A.** 1000 to 10000 nM

**Q.** Which IC50 does the source give for Cc1ncccc1C(=O)N1CCC(C2SCCNc3c2c(-c2ccccn2)nn3C)CC1 (stereo not drawn) here?
**A.** > 10000 nM

**Q.** Cc1ncccc1NC(=O)N1CCC(C2SCCNc3c2c(-c2ccccn2)nn3C)CC1 (stereo not drawn) was tested. Which IC50 did it give?
**A.** > 10000 nM

**Q.** Which IC50 does the source give for CCn1nc(-c2ccccn2)c2c1N[C@@H](C)CS[C@@H]2c1ccc(C(N)=O)cc1C (single isomer, unassigned) [M.45, 4-(1-ethyl-7-methyl-3-(pyridin-2-yl)-4,6,7,8-tetrahydro-1H-pyrazolo[3,4-e][1,4]thiazepin-4-yl)-3-methylbenzamide] here?
**A.** 1000 to 10000 nM

**Q.** How did the IC50 turn out when Cc1cc(C#N)ccc1C1SC(C)CNc2c1c(C)nn2C (stereo not drawn) [G.11] was run?
**A.** 1000 to 10000 nM

**Q.** How did the IC50 turn out when Cn1nc(-c2ccccn2)c2c1NCCSC2c1ccc(-c2cnn(CCC(N)=O)c2)cc1Cl (stereo not drawn) [U.18] was run?
**A.** 100 to 1000 nM

**Q.** How did the IC50 turn out when CCn1nc(-c2ccccn2)c2c1NC(=O)CCC2c1ccc(Br)cc1C (stereo not drawn) [AA.3] was run?
**A.** < 100 nM

**Q.** With Cn1nc(-c2ccc(F)cc2F)c2c1NCCSC2c1ccc(Cl)cc1Cl (stereo not drawn) [D.93] as the compound, how does the IC50 read?
**A.** 100 to 1000 nM

**Q.** Which IC50 does the source give for Cn1nc(-c2ccc(C(=O)O)cn2)c2c1NCCSC2c1ccc(Cl)cc1Cl (stereo not drawn) here?
**A.** 1000 to 10000 nM

**Q.** For CCn1nc(-c2ccccn2)c2c1N[C@@H](C)CS[C@@H]2c1ccc(C#CC(C)(C)O)cc1C (single isomer, unassigned) [M.29, 4-(4-(1-ethyl-7-methyl-3-(pyridin-2-yl)-4,6,7,8-tetrahydro-1H-pyrazolo[3,4-e][1,4]thiazepin-4-yl)-3-methylphenyl)-2-methylbut-3-yn-2-ol], which IC50 is on record?
**A.** 1000 to 10000 nM

**Q.** Cn1nc(-c2ccccn2)c2c1NCCSC2c1ccc(-c2cncc(C#N)c2)cc1Cl (stereo not drawn) [U.4] was tested. Which IC50 did it give?
**A.** 100 to 1000 nM

**Q.** CC(=O)N1CCN(c2ccc(-c3ccc(C4SCCNc5c4c(-c4ccccn4)nn5C)c(Cl)c3)cn2)CC1 (stereo not drawn) [U.14] was tested. Which IC50 did it give?
**A.** 1000 to 10000 nM

**Q.** How did the IC50 turn out when Cc1cc(C(=O)Nc2cccnc2C)ccc1C1SCC(CO)Nc2c1c(-c1ccccn1)nn2C (single isomer, unassigned) was run?
**A.** 1000 to 10000 nM

**Q.** Cn1nc(-c2ccccn2)c2c1NCCSC2c1ccc(-c2ccncc2C#N)cc1Cl (stereo not drawn) [U.9] was tested. Which IC50 did it give?
**A.** 100 to 1000 nM

**Q.** How did the IC50 turn out when Cn1nc(-c2ccccn2)c2c1NCCSC2c1ccc(C(C)(C)O)cc1Cl (stereo not drawn) was run?
**A.** 1000 to 10000 nM

**Q.** How did the IC50 turn out when Cc1cc(CCC(C)(C)O)ccc1[C@H]1SC[C@H](C)Nc2c1c(-c1ccccn1)nn2C (single isomer, unassigned) [M.41, 4-(4-(1,7-dimethyl-3-(pyridin-2-yl)-4,6,7,8-tetrahydro-1H-pyrazolo[3,4-e][1,4]thiazepin-4-yl)-3-methylphenyl)-2-methylbutan-2-ol] was run?
**A.** 100 to 1000 nM

**Q.** For Cc1ccc(-c2nn(C)c3c2C(c2ccc(Cl)cc2Cl)SCCN3)cc1 (stereo not drawn) [D.87], which IC50 is on record?
**A.** 100 to 1000 nM

**Q.** Which IC50 does the source give for Cc1cc(C(=O)Nc2cccnc2C)ccc1[C@H]1SC[C@@H](C)Nc2c1c(-c1ccncn1)nn2C (single isomer, unassigned) [M.60, 4-(1,7-dimethyl-3-(pyrimidin-4-yl)-4,6,7,8-tetrahydro-1H-pyrazolo[3,4-e][1,4]thiazepin-4-yl)-3-methyl-N-(2-methylpyridin-3-yl)benzamide] here?
**A.** 1000 to 10000 nM

**Q.** With Cc1cc(Cl)ccc1C1SCCNc2c1c(-c1ccccn1)nn2C (single isomer, unassigned) as the compound, how does the IC50 read?
**A.** < 100 nM

**Q.** Which IC50 does the source give for Cc1ncccc1NC(=O)c1ccc([C@H]2SC[C@H](C)Nc3c2c(-c2ccccn2)nn3C)c(C#N)c1 (single isomer, unassigned) [M.18, 3-cyano-4-(1,7-dimethyl-3-(pyridin-2-yl)-4,6,7,8-tetrahydro-1H-pyrazolo[3,4-e][1,4]thiazepin-4-yl)-N-(2-methylpyridin-3-yl)benzamide] here?
**A.** 1000 to 10000 nM
